According to patent publication US10576102B2, “KOC1-derived peptide and vaccine including same” (ONCOTHERAPY SCIENCE, INC., priority 2014, dated 2020):
“Also recorded” adds a separate entry of the source.

Legend:
peptide-pulsed C1R-A03 [1] = assay: IFN-gamma ELISA of CTL line and CTL clone (HLA-A*0301); assay type: cell-based, human
Experimental: CTLs were propagated in culture using methods similar to those disclosed by Riddell et al. (Walter E A et al., N Engl J Med 1995, 333(16): 1038-44; Riddell S R et al., Nat Med 1996, 2(2): 216-23). The CTLs were co-cultured in a total of 25 ml AIM-V medium containing 5% AS (AIM-V/5% AS) and 40 ng/ml anti-CD3 antibody with two types of Mitomycin C-treated human B lymphoblastoid cell lines at 5×10^6 cells/flask. One day after beginning of the culturing, 120 IU/ml IL-2 was added to the culture. On days 5, 8 and 11, a fresh AIM-V/5% AS medium containing 30 IU/ml IL-2 was added to the culture (Tanaka H et al., Br J Cancer 2001, 84(1): 94-9; Umano Y et al., Br J Cancer 2001, 84(8): 1052-7; Uchida N et al., Clin Cancer Res 2004, 10(24): 8577-86; Suda T et al., Cancer Sci 2006, 97(5): 411-9; Watanabe T et al., Cancer Sci 2005, 96(8): 498-506).
Dilution of CTLs was carried out to make 0.3, 1 and 3 cells/well in 96 round-bottomed microtiter plates (Nalge Nunc International). The CTLs were co-cultured with two types of Mitomycin C-treated human B lymphoblastoid cell lines at 1×10^4 cells/well in a total of 150 micro-1/well AIM-V/5% AS medium with 30 ng/ml anti-CD3 antibody and 125 IU/ml IL-2. Ten days later, IL-2 was added to the medium at 50 micro-1/well to reach a final concentration of 125 IU/ml. […]

peptide-pulsed C1R-A03 [2] = assay: In vitro CTL induction, IFN-gamma ELISPOT assay (HLA-A*0301); assay type: cell-based, human; conditions: CTLs induced with peptide-pulsed DCs from HLA-A*0301-positive volunteers; day 21; vs peptide-pulsed C1R-A03, compared with unpulsed control
Experimental: C1R (C1R-A03) that stably expresses HLA-A*0301 was used as a stimulator cell. A cDNA encoding the open-reading frame of HLA-A*0301 was amplified by PCR and cloned into an expression vector. C1R cells were transfected with the expression vector, and then selected using G418 (Invitrogen) for two weeks. The G418-selected cells were seeded into wells containing G418-added culture medium in a 96-well plate, and further cultured for 30 days. The exogenous HLA-A*0301 expression in C1R cells was verified by flow cytometric analysis.
Monocyte-derived dendritic cells (DCs) were used as the antigen-presenting cell to induce a cytotoxic T lymphocyte (CTL) response against peptides presented on human leukocyte antigens (HLAs). As described in the other sections, DCs were generated in vitro (Nakahara S et al., Cancer Res 2003, 63(14): 4112-8). Specifically, peripheral-blood mononuclear cells isolated from healthy volunteers (HLA-A*0301-positive) with the Ficoll-Paque plus solution (Pharmacia) were separated by attaching to plastic tissue culture dishes (Becton Dickinson) and concentrated as a monocyte fraction. The monocyte-concentrated population was cultured in the presence of 1000 IU/ml granulocyte macrophage colony-stimulating factor (R&D System) and 1000 IU/ml interleukin(IL)-4 (R&D System) in an AIM-V medium (Invitrogen) containing 2% heat-inactivated autologous serum (AS). After seven days of culturing, the cytokine-induced DCs were pulsed with 20 micro-g/ml each of the synthesized peptides in an AIM-V medium at 37 degrees C. for three hours in the presence of 3 micro-g/ml beta 2-microglobulin. The generated cells appeared to express on their cell surface DC-associated molecules such as CD80, CD83, CD86 and HLA class II (data not shown). Next, these peptide-pulsed DCs were inactivated by X-ray irradiation (20 Gy), and mixed in a 1:20 ratio with autologous CD8^+ T cells obtained by positive selection using the CD8 Positive Isolation Kit (Dynal). These culture products were seeded in a 48-well plate (Corning). Each well was made to contain 1.5×10^4 peptide-pulsed DCs, 3×10^5 CD8^+ T cells and 10 ng/ml IL-7 (R&D System) in 0.5 ml of the AIM-V/2% AS medium. Three days later, these culture products were added with a final concentration of 20 IU/ml IL-2 (CHIRON). On day 7 and day 14, T cells were further stimulated with peptide-pulsed autologous DCs. The DCs were prepared every time by the same method as above. […]

[3] = system: COS7 cells transfected with both KOC1 and HLA-A*0301; assay: Specific CTL activity against target cells expressing KOC1 and HLA-A*0301; assay type: cell-based, African green monkey; conditions: listed as KOC1-A03-10-120
Experimental: Specifically, peptide-pulsed C1R-A03 (1×10^4 cells/well) was prepared as the stimulator cell. The induced CTLs, i.e., CTL lines and CTL clones, were used as the responder cell. The IFN-gamma ELISPOT assay and IFN-gamma ELISA were performed according to the manufacturer's manual.
A cDNA encoding the open-reading frame of a target gene or HLA-A*0301 was amplified by PCR. The PCR-amplified product was cloned into an expression vector. Either or both of the target gene-expressing vector and the HLA-A*0301-expressing vector were transfected into […], which is a cell line negative for the target gene and HLA, using Lipofectamine 2000 (Invitrogen) following the manufacturer's recommended protocol. Two days after transfection, the transfected cells were harvested using versene (Invitrogen), and used as the target cell for CTL activity assay (5×10^4 cells/well).
The CTL clone established against KOC1-A03-10-120 (SEQ ID NO: 27) was investigated for their ability to recognize target cells expressing KOC1 and the HLA-A*0301 molecule. COS7 cells transfected with both full-length KOC1 and the HLA-A*0301 gene (a specific model of target cells expressing KOC1 and the HLA-A*0301 gene) were prepared as the target cell. COS7 cells transfected with either full-length KOC1 or HLA-A*0301 were prepared as the control.

For “AVVNVTYSSK (a peptide derived from KOC1) [SEQ ID NO: 27]”, the “IFN-gamma production of CTL clone, ELISA” value (peptide-pulsed C1R-A03 [1]; CTL clone by limiting dilution, peptide-pulsed C1R-A03, listed as KOC1-A03-10-120) was “Potent IFN-gamma production”, the “IFN-gamma production of CTL line, ELISA” value (peptide-pulsed C1R-A03 [1]; CTL line, target cells pulsed with the peptide vs not pulsed, C1R-A03) was “potent IFN-gamma production” and the “peptide-specific CTL activity (IFN-gamma production), ELISPOT” value (peptide-pulsed C1R-A03 [2]) was “potent IFN-gamma production”. The “specific CTL activity of CTL clone against target cells expressing KOC1 and HLA-A*0301” value ([3]; COS7 transfected with both full-length KOC1 and HLA-A*0301) was “specific CTL activity; also recorded: potent CTL activities” and the “specific CTL activity of CTL clone against control cells” value ([3]; COS7 transfected with either full-length KOC1 or HLA-A*0301) was “a significant specific CTL activity was not shown; also recorded: a significant specific CTL activity was not detected”.
